Test results reported in US10647675B2 (priority 2015, dated 2020).
In brackets after ≈: the same amount, converted by molar mass.

Columns and labels:
[1] = tested on: Trichophyton mentagrophytes SM-110; experiment: Antifungal activity evaluation test: minimum inhibitory concentration (MIC), broth dilution by reference to CLSI M38-A2; format: cell-based; settings: SM110, read-out: MIC (T. menta.)
In short: (§1)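 Broth microdilution after CLSI M38-A2: 2-fold DMSO dilution series in MOPS-buffered RPMI 1640 pH 7.0, inoculum 2×10^3 cells/mL final. Incubated 35° C for 4 days; MIC (μg/mL) is lowest concentration giving visually ≥80% growth inhibition versus growth control.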

[2] = tested on: Trichophyton rubrum KD-1130; experiment: as above; format: cell-based; settings: KD1130, read-out: MIC (T. rubrum)
In short: as §1

Row | SMILES | MIC [1] [µg/mL] | MIC [2] [µg/mL]
1 | COc1ccccc1-c1cccnc1Oc1cnc(Cl)nc1 [I-338, 2-chloro-5-{[3-(2-methoxyphenyl)pyridin-2-yl]oxy}pyrimidine] | 0.2 to 0.78 (≈ 0.637 to 2.49 µM) | 0.2 to 0.78 (≈ 0.637 to 2.49 µM)
2 | Cc1nn(C)c(C)c1-c1cccnc1Oc1ccc(C(F)(F)F)cc1 [I-341, 2-[4-(trifluoromethyl)phenoxy]-3-(1,3,5-trimethyl-1H-pyrazol-4-yl)pyridine] | 0.2 to 0.78 (≈ 0.576 to 2.25 µM) | ≤ 0.1
3 | Cc1nc(C)c(-c2cccnc2Oc2ccc(C(F)(F)F)cc2)s1 [I-342] | 0.2 to 0.78 (≈ 0.571 to 2.23 µM) | 0.2 to 0.78 (≈ 0.571 to 2.23 µM)
4 | COCC(F)(F)c1ccc(Oc2ncccc2-c2cccc3ncnn23)cn1 [I-343, 5-(2-{[6-(1,1-difluoro-2-methoxyethyl)pyridin-3-yl]oxy}pyridin-3-yl)-[1,2,4]triazolo[1,5-a]pyridine] | 0.2 to 0.78 (≈ 0.522 to 2.03 µM) | 0.2 to 0.78 (≈ 0.522 to 2.03 µM)
5 | Cc1nn(C)c(C)c1-c1cccnc1Oc1ccc(C(F)(F)F)nc1 [I-346, 2-{[6-(trifluoromethyl)pyridin-3-yl]oxy}-3-(1,3,5-trimethyl-1H-pyrazol-4-yl)pyridine] | 1.56 to 6.25 (≈ 4.48 to 17.9 µM) | 1.56 to 6.25 (≈ 4.48 to 17.9 µM)
6 | COc1ncccc1-c1cccnc1Oc1ccc(C(F)(F)CO)nc1 [I-347] | 1.56 to 6.25 (≈ 4.34 to 17.4 µM) | 1.56 to 6.25 (≈ 4.34 to 17.4 µM)
7 | COCC(F)(F)c1ccc(Oc2ncccc2-c2cccnc2OC)cn1 [I-348, 2-{[6-(1,1-difluoro-2-methoxyethyl)pyridin-3-yl]oxy}-2′-methoxy-3,3′-bipyridine] | 0.2 to 0.78 (≈ 0.536 to 2.09 µM) | 0.2 to 0.78 (≈ 0.536 to 2.09 µM)
8 | COCC(F)(F)c1ccc(Oc2ncccc2-c2cnccc2OC)cn1 [I-349, 2-{[6-(1,1-difluoro-2-methoxyethyl)pyridin-3-yl]oxy}-4′-methoxy-3,3′-bipyridine] | 1.56 to 6.25 (≈ 4.18 to 16.7 µM) | 1.56 to 6.25 (≈ 4.18 to 16.7 µM)
9 | COc1ccccc1-c1cccnc1Oc1ccc(C(F)(F)Cn2ccnc2)nc1 [I-351, 2-({6-[1,1-difluoro-2-(1H-imidazol-1-yl)ethyl]pyridin-3-yl}oxy)-3-(2-methoxyphenyl)pyridine] | 0.2 to 0.78 (≈ 0.49 to 1.91 µM) | 0.2 to 0.78 (≈ 0.49 to 1.91 µM)
10 | COc1ncccc1-c1cccnc1Oc1cnc(I)nc1 [I-353] | 1.56 to 6.25 (≈ 3.84 to 15.4 µM) | 0.2 to 0.78 (≈ 0.492 to 1.92 µM)
11 | COc1ccncc1-c1cncnc1Oc1ccc(Cl)cc1 [I-357, 4-(4-chlorophenoxy)-5-(4-methoxypyridin-3-yl)pyrimidine] | 0.2 to 0.78 (≈ 0.637 to 2.49 µM) | 1.56 to 6.25 (≈ 4.97 to 19.9 µM)
12 | COCC(F)(F)c1ccc(Oc2ncncc2-c2cccnc2OC)cn1 [I-361, 4-{[6-(1,1-difluoro-2-methoxyethyl)pyridin-3-yl]oxy}-5-(2-methoxypyridin-3-yl)pyrimidine] | 0.2 to 0.78 (≈ 0.534 to 2.08 µM) | 0.2 to 0.78 (≈ 0.534 to 2.08 µM)
13 | COc1ccccc1-c1cccnc1Oc1ccc(N(C)C)nc1 [I-365] | ≤ 0.1 | 0.2 to 0.78 (≈ 0.622 to 2.43 µM)
14 | COc1cc(F)ccc1-c1cccnc1Oc1ccc(Cl)nc1 [I-366] | ≤ 0.1 | ≤ 0.1
15 | CCN(C)c1ccc(Oc2ncccc2-c2ccc(F)cc2OC)cn1 [I-367, N-ethyl-5-{[3-(4-fluoro-2-methoxyphenyl)pyridin-2-yl]oxy}-N-methylpyridin-2-amine] | ≤ 0.1 | ≤ 0.1
16 | CCCN(C)c1ccc(Oc2ncccc2-c2ccc(F)cc2OC)cn1 [I-368, 5-{[3-(4-fluoro-2-methoxyphenyl)pyridin-2-yl]oxy}-N-methyl-N-propylpyridin-2-amine] | ≤ 0.1 | ≤ 0.1
17 | COc1cc(F)ccc1-c1cccnc1Oc1cnc(N(C)C)c(C)c1 [I-369] | ≤ 0.1 | ≤ 0.1
18 | COc1ccccc1-c1cccnc1Oc1ccc(OC(F)F)nc1 [I-370, 2-{[6-(difluoromethoxy)pyridin-3-yl]oxy}-3-(2-methoxyphenyl)pyridine] | ≤ 0.1 | ≤ 0.1
19 | COc1ccccc1-c1cccnc1Oc1ccc(CNc2ccccc2)nc1 [I-371, N-[(5-{[3-(2-methoxyphenyl)pyridin-2-yl]oxy}pyridin-2-yl)methyl]aniline] | ≤ 0.1 | ≤ 0.1
20 | COc1cccc(-c2cccnc2Oc2ccc(C(F)(F)F)nc2)n1 [I-374, 6-methoxy-2′-{[6-(trifluoromethyl)pyridin-3-yl]oxy}-2,3′-bipyridine] | ≤ 0.1 | ≤ 0.1
21 | FC(F)(F)c1ccc(Oc2ncccc2-c2cccc3cc(Cl)nn23)cn1 [I-375, 2-chloro-7-(2-{[6-(trifluoromethyl)pyridin-3-yl]oxy}pyridin-3-yl)pyrazolo[1,5-a]pyridine] | ≤ 0.1 | ≤ 0.1
22 | Cc1nsc(-c2cccnc2Oc2ccc(C(F)(F)F)nc2)c1Br [I-377, 4-bromo-3-methyl-5-(2-{[6-(trifluoromethyl)pyridin-3-yl]oxy}pyridin-3-yl)isothiazole] | ≤ 0.1 | ≤ 0.1
23 | C=C(C)c1ncc(Oc2ncccc2-c2ccc(F)cc2OC)cn1 [I-378, 5-{[3-(4-fluoro-2-methoxyphenyl)pyridin-2-yl]oxy}-2-(prop-1-en-2-yl)pyrimidine] | ≤ 0.1 | ≤ 0.1
24 | COc1cc(F)ccc1-c1cccnc1Oc1cnc(C2(C)CC2)nc1 [I-379, 5-{[3-(4-fluoro-2-methoxyphenyl)pyridin-2-yl]oxy}-2-(1-methylcyclopropyl)pyrimidine] | ≤ 0.1 | ≤ 0.1
25 | COc1ccccc1-c1cccnc1Oc1cnc(OCc2ccccc2)nc1 [I-380, 2-(benzyloxy)-5-{[3-(2-methoxyphenyl)pyridin-2-yl]oxy}pyrimidine] | ≤ 0.1 | ≤ 0.1
26 | COc1ncccc1-c1cccnc1Oc1cnc(N(C)Cc2ccccc2)nc1 [I-381, N-benzyl-5-{[2′-methoxy-(3,3′-bipyridin)-2-yl]oxy}-N-methylpyrimidin-2-amine] | ≤ 0.1 | ≤ 0.1
27 | CCCCN(C)c1ncc(Oc2ncccc2-c2cnccc2OC)cn1 [I-384] | ≤ 0.1 | ≤ 0.1
28 | CCOC(=O)CN(C)c1ncc(Oc2ncccc2-c2ccc(F)cc2OC)cn1 [I-386, ethyl 2-[(5-{[3-(4-fluoro-2-methoxyphenyl)pyridin-2-yl]oxy}-pyrimidin-2-yl)(methyl)amino]acetate] | ≤ 0.1 | ≤ 0.1

Further lines, results first:

Row | MIC [1] [µg/mL] | MIC [2] [µg/mL] | SMILES
29 | ≤ 0.1 | ≤ 0.1 | COc1cc(-c2cncnc2Oc2ccc(C(C)(F)F)nc2)c(F)cc1F [I-334, 4-{[6-(1,1-difluoroethyl)pyridin-3-yl]oxy}-5-(2,4-difluoro-5-methoxyphenyl)pyrimidine]
30 | ≤ 0.1 | ≤ 0.1 | CC(F)(F)c1ccc(Oc2ncncc2-c2cccc3c2OCC3)cn1 [I-335, 4-{[6-(1,1-difluoroethyl)pyridin-3-yl]oxy}-5-(2,3-dihydrobenzofuran-7-yl)pyrimidine]
31 | ≤ 0.1 | ≤ 0.1 | COc1cc(F)c(F)cc1-c1cncnc1Oc1ccc(C(C)(F)F)nc1 [I-336, 4-{[6-(1,1-difluoroethyl)pyridin-3-yl]oxy}-5-(4,5-difluoro-2-methoxyphenyl)pyrimidine]
32 | ≤ 0.1 | ≤ 0.1 | COc1ccccc1-c1cccnc1Oc1cnc(N(C)Cc2ccccc2)nc1 [I-339, N-benzyl-5-{[3-(2-methoxyphenyl)pyridin-2-yl]oxy}-N-methylpyrimidin-2-amine]
33 | ≤ 0.1 | ≤ 0.1 | CCN(C)c1ncc(Oc2ncccc2-c2cccc3c2OCC3)cn1 [I-340, 5-{[3-(2,3-dihydrobenzofuran-7-yl)pyridin-2-yl]oxy}-N-ethyl-N-methylpyrimidin-2-amine]
34 | ≤ 0.1 | ≤ 0.1 | CCOC(=O)CN(C)c1ccc(Oc2ncccc2-c2ccccc2OC)cn1 [I-344, ethyl 2-[(5-{[3-(2-methoxyphenyl)pyridin-2-yl]oxy}pyridin-2-yl)(methyl)amino]acetate]
35 | ≤ 0.1 | ≤ 0.1 | COc1ccccc1-c1cccnc1Oc1ccc2c(c1)CCC2 [I-345, 2-[(2,3-dihydro-1H-inden-5-yl)oxy]-3-(2-methoxyphenyl)pyridine]
36 | ≤ 0.1 | ≤ 0.1 | COc1ccccc1-c1cccnc1Oc1ccc(C(F)(F)Cn2cccn2)nc1 [I-350, 2-({6-[1,1-difluoro-2-(1H-pyrazol-1-yl)ethyl]pyridin-3-yl}oxy)-3-(2-methoxyphenyl)pyridine]
37 | ≤ 0.1 | 0.2 to 0.78 (≈ 0.524 to 2.05 µM) | COC(=O)CN(C)c1ncc(Oc2ncccc2-c2cccnc2OC)cn1 [I-354, methyl 2-[(5-{[2′-methoxy-(3,3′-bipyridin)-2-yl]oxy}-pyrimidin-2-yl)(methyl)amino]acetate]
38 | ≤ 0.1 | ≤ 0.1 | COc1c(Cl)cncc1-c1cccnc1Oc1ccc(C(F)F)cc1 [I-355, 5′-chloro-2-[4-(difluoromethyl)phenoxy]-4′-methoxy-3,3′-bipyridine]
39 | ≤ 0.1 | ≤ 0.1 | COc1c(F)cncc1-c1cccnc1Oc1ccc(C(F)F)cc1 [I-356, 2-[4-(difluoromethyl)phenoxy]-5′-fluoro-4′-methoxy-3,3′-bipyridine]
40 | ≤ 0.1 | ≤ 0.1 | FC(F)c1ccc(Oc2ncncc2-c2cccc3ccnn23)cc1 [I-358, 7-{4-[4-(difluoromethyl)phenoxy]pyrimidin-5-yl)pyrazolo[1,5-a]-pyridine]
41 | ≤ 0.1 | ≤ 0.1 | COc1cc(F)ccc1-c1cncnc1Oc1ccc(C(C)(F)F)nc1 [I-359, 4-{[6-(1,1-difluoroethyl)pyridin-3-yl]oxy}-5-(4-fluoro-2-methoxyphenyl)pyrimidine]
42 | ≤ 0.1 | ≤ 0.1 | COc1ccc(F)cc1-c1cncnc1Oc1ccc(C(C)(F)F)nc1 [I-360, 4-{[6-(1,1-difluoroethyl)pyridin-3-yl]oxy}-5-(5-fluoro-2-methoxyphenyl)pyrimidine]
43 | ≤ 0.1 | ≤ 0.1 | FC(F)(F)c1ccc(Nc2ncncc2-c2cccc3ccnn23)cc1 [I-362, 5-(pyrazolo[1,5-a]pyridin-7-yl)-N-[4-(trifluoromethyl)phenyl]pyrimidin-4-amine]
44 | ≤ 0.1 | ≤ 0.1 | COc1cc(-c2cncnc2Oc2ccc(C(F)F)nc2)c(F)cc1F [I-363, 5-(2,4-difluoro-5-methoxyphenyl)-4-{[6-(difluoromethyl)pyridin-3-yl]oxy}pyrimidine]
